Data as given in PubChem BioAssay AID1963449 (Molecular Pharmacology Branch, DTP, NCI, 2024).

Test system: 596521-263-R-J1-PDC complex spheroid growth
Assay: Anticancer human tumor 596521-263-R-J1-PDC patient-derived soft tissue sarcoma cell line growth inhibition [Asc]
Conditions: for IC50: curve of first compound; for viability, T/C: stronger effect = lower value; active = viability on the fitted dose curve at most 10% of control; inactive = the rest
Procedure, shortened: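 Spheroid model: tumor line + HUVEC + hMSC. Single agents and combinations; top conc. at/near clinical Cmax (10 microM if undetermined), half-log dilutions. DMSO stocks at 800-fold test concentration.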

[1] = second compound 0.00949 µM, first compound 0.0316 µM
[2] = second compound 0.00949 µM, first compound 0.1 µM
[3] = second compound 0.00949 µM, first compound 0.316 µM
[4] = second compound 0.00949 µM, first compound 1 µM
[5] = second compound 0.03 µM, first compound 0.0316 µM
[6] = second compound 0.03 µM, first compound 0.1 µM
[7] = second compound 0.03 µM, first compound 0.316 µM
[8] = second compound 0.03 µM, first compound 1 µM
[9] = second compound 0.0949 µM, first compound 0.0316 µM
[10] = second compound 0.0949 µM, first compound 0.1 µM
[11] = second compound 0.0949 µM, first compound 0.316 µM
[12] = second compound 0.0949 µM, first compound 1 µM
[13] = second compound 0.3 µM, first compound 0.0316 µM
[14] = second compound 0.3 µM, first compound 0.1 µM
[15] = second compound 0.3 µM, first compound 0.316 µM
[16] = second compound 0.3 µM, first compound 1 µM
[17] = second compound 0.949 µM, first compound 0.0316 µM
[18] = second compound 0.949 µM, first compound 0.1 µM
[19] = second compound 0.949 µM, first compound 0.316 µM
[20] = second compound 0.949 µM, first compound 1 µM
[21] = second compound 3 µM, first compound 0.0316 µM
[22] = second compound 3 µM, first compound 0.1 µM
[23] = second compound 3 µM, first compound 0.316 µM
[24] = second compound 3 µM, first compound 1 µM
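Note: spheroids exposed to compounds for 7 days.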

C#Cc1c(F)ccc2cc(O)cc(-c3ncc4c(N5CC6CCC(C5)N6)nc(OCC56CCCN5CC(F)C6)nc4c3F)c12 (stereo unspecified) + CCN1C(C(=O)NC23CCC(C(=O)O)(CC2)CC3)C(c2cccc(Cl)c2F)C2(C(=O)Nc3cc(Cl)ccc32)C12CCCCC2
inactive: viability, T/C [1] 90.9% | viability, T/C [2] 88.8% | viability, T/C [3] 93.7% | viability, T/C [4] 93.1% | viability, T/C (second compound 0.00949 µM, first compound 3.16 µM) 100% | viability, T/C (second compound 0.00949 µM, first compound 10 µM) 87.7% | viability, T/C [5] 111% | viability, T/C [6] 101% | viability, T/C [7] 85.8% | viability, T/C [8] 96.2% | viability, T/C (second compound 0.03 µM, first compound 3.16 µM) 107% | viability, T/C (second compound 0.03 µM, first compound 10 µM) 80% | viability, T/C [9] 99.3% | viability, T/C [10] 84.3% | viability, T/C [11] 96.9% | viability, T/C [12] 92% | viability, T/C (second compound 0.0949 µM, first compound 3.16 µM) 102% | viability, T/C (second compound 0.0949 µM, first compound 10 µM) 84.8% | viability, T/C [13] 103% | viability, T/C [14] 98.9% | viability, T/C [15] 97.8% | viability, T/C [16] 100% | viability, T/C (second compound 0.3 µM, first compound 3.16 µM) 119% | viability, T/C (second compound 0.3 µM, first compound 10 µM) 85.7% | viability, T/C [17] 92.4% | viability, T/C [18] 108% | viability, T/C [19] 103% | viability, T/C [20] 98.7% | viability, T/C (second compound 0.949 µM, first compound 3.16 µM) 87% | viability, T/C (second compound 0.949 µM, first compound 10 µM) 80.3% | viability, T/C [21] 81.3% | viability, T/C [22] 85.7% | viability, T/C [23] 85.1% | viability, T/C [24] 88.8% | viability, T/C (second compound 3 µM, first compound 3.16 µM) 88.2% | viability, T/C (second compound 3 µM, first compound 10 µM) 78.9%
> 10 µM: IC50 (second compound 0.00949 µM) | IC50 (second compound 0.03 µM) | IC50 (second compound 0.0949 µM) | IC50 (second compound 0.3 µM) | IC50 (second compound 0.949 µM) | IC50 (second compound 3 µM)

CNC(C)C(=O)NC1CN(S(=O)(=O)c2cccc(S(=O)(=O)N3CCC4CCC(C(=O)NC(c5ccccc5)c5ccccc5)N4C(=O)C(NC(=O)C(C)NC)C3)c2)CCC2CCC(C(=O)NC(c3ccccc3)c3ccccc3)N2C1=O (stereo unspecified) + CCN1C(C(=O)NC23CCC(C(=O)O)(CC2)CC3)C(c2cccc(Cl)c2F)C2(C(=O)Nc3cc(Cl)ccc32)C12CCCCC2
inactive: viability, T/C (second compound 0.00949 µM, first compound 0.00316 µM) 92.4% | viability, T/C (second compound 0.00949 µM, first compound 0.01 µM) 87.3% | viability, T/C [1] 111% | viability, T/C [2] 96% | viability, T/C [3] 87% | viability, T/C [4] 86.3% | viability, T/C (second compound 0.03 µM, first compound 0.00316 µM) 96.4% | viability, T/C (second compound 0.03 µM, first compound 0.01 µM) 86.5% | viability, T/C [5] 88.5% | viability, T/C [6] 87.7% | viability, T/C [7] 87.5% | viability, T/C [8] 73.1% | viability, T/C (second compound 0.0949 µM, first compound 0.00316 µM) 102% | viability, T/C (second compound 0.0949 µM, first compound 0.01 µM) 105% | viability, T/C [9] 85.2% | viability, T/C [10] 94.7% | viability, T/C [11] 91.4% | viability, T/C [12] 89.8% | viability, T/C (second compound 0.3 µM, first compound 0.00316 µM) 104% | viability, T/C (second compound 0.3 µM, first compound 0.01 µM) 104% | viability, T/C [13] 98.4% | viability, T/C [14] 91.5% | viability, T/C [15] 94.2% | viability, T/C [16] 70.3% | viability, T/C (second compound 0.949 µM, first compound 0.00316 µM) 99% | viability, T/C (second compound 0.949 µM, first compound 0.01 µM) 90.2% | viability, T/C [17] 98.8% | viability, T/C [18] 80.3% | viability, T/C [19] 78.8% | viability, T/C [20] 84.4% | viability, T/C (second compound 3 µM, first compound 0.00316 µM) 78.2% | viability, T/C (second compound 3 µM, first compound 0.01 µM) 87.8% | viability, T/C [21] 82.8% | viability, T/C [22] 73.5% | viability, T/C [23] 69.3% | viability, T/C [24] 65.4%
> 1 µM: IC50 (second compound 0.00949 µM) | IC50 (second compound 0.03 µM) | IC50 (second compound 0.0949 µM) | IC50 (second compound 0.3 µM) | IC50 (second compound 0.949 µM) | IC50 (second compound 3 µM)

Cc1nc(N2CCC3(CC2)COC(C)C3N)c(CO)nc1Sc1ccnc(N)c1Cl (stereo unspecified) + CCN1C(C(=O)NC23CCC(C(=O)O)(CC2)CC3)C(c2cccc(Cl)c2F)C2(C(=O)Nc3cc(Cl)ccc32)C12CCCCC2
inactive: viability, T/C (second compound 0.00949 µM, first compound 0.00949 µM) 97.8% | viability, T/C (second compound 0.00949 µM, first compound 0.03 µM) 92.9% | viability, T/C (second compound 0.00949 µM, first compound 0.0949 µM) 87.7% | viability, T/C (second compound 0.00949 µM, first compound 0.3 µM) 84.5% | viability, T/C (second compound 0.00949 µM, first compound 0.949 µM) 78.6% | viability, T/C (second compound 0.00949 µM, first compound 3 µM) 67.8% | viability, T/C (second compound 0.03 µM, first compound 0.00949 µM) 92.5% | viability, T/C (second compound 0.03 µM, first compound 0.03 µM) 99.1% | viability, T/C (second compound 0.03 µM, first compound 0.0949 µM) 104% | viability, T/C (second compound 0.03 µM, first compound 0.3 µM) 88.3% | viability, T/C (second compound 0.03 µM, first compound 0.949 µM) 81.2% | viability, T/C (second compound 0.03 µM, first compound 3 µM) 66.2% | viability, T/C (second compound 0.0949 µM, first compound 0.00949 µM) 101% | viability, T/C (second compound 0.0949 µM, first compound 0.03 µM) 92.9% | viability, T/C (second compound 0.0949 µM, first compound 0.0949 µM) 87.4% | viability, T/C (second compound 0.0949 µM, first compound 0.3 µM) 91.3% | viability, T/C (second compound 0.0949 µM, first compound 0.949 µM) 80% | viability, T/C (second compound 0.0949 µM, first compound 3 µM) 69.3% | viability, T/C (second compound 0.3 µM, first compound 0.00949 µM) 101% | viability, T/C (second compound 0.3 µM, first compound 0.03 µM) 95% | viability, T/C (second compound 0.3 µM, first compound 0.0949 µM) 96.5% | viability, T/C (second compound 0.3 µM, first compound 0.3 µM) 91.5% | viability, T/C (second compound 0.3 µM, first compound 0.949 µM) 83.8% | viability, T/C (second compound 0.3 µM, first compound 3 µM) 69.3% | viability, T/C (second compound 0.949 µM, first compound 0.00949 µM) 90.8% | viability, T/C (second compound 0.949 µM, first compound 0.03 µM) 101% | viability, T/C (second compound 0.949 µM, first compound 0.0949 µM) 100% | viability, T/C (second compound 0.949 µM, first compound 0.3 µM) 91.5% | viability, T/C (second compound 0.949 µM, first compound 0.949 µM) 90.1% | viability, T/C (second compound 0.949 µM, first compound 3 µM) 73.8% | viability, T/C (second compound 3 µM, first compound 0.00949 µM) 82.6% | viability, T/C (second compound 3 µM, first compound 0.03 µM) 81.6% | viability, T/C (second compound 3 µM, first compound 0.0949 µM) 82.1% | viability, T/C (second compound 3 µM, first compound 0.3 µM) 86.1% | viability, T/C (second compound 3 µM, first compound 0.949 µM) 65.8% | viability, T/C (second compound 3 µM, first compound 3 µM) 58.2%
> 3 µM: IC50 (second compound 0.00949 µM) | IC50 (second compound 0.03 µM) | IC50 (second compound 0.0949 µM) | IC50 (second compound 0.3 µM) | IC50 (second compound 0.949 µM) | IC50 (second compound 3 µM)
